Assay results: patent US8715635B2, “Frictionless molecular rotary motors” (Technion Research & Development Foundation Limited, priority 2007, dated 2014)
Values after ≈ are worked out from the molar mass of the structure shown. Where two headings read alike, the source gives them in different places.

Legend:
[1] = cited from earlier work
[2] = Solubility; format: physicochemical; conditions: water at pH=7, 30° C.
[3] = cited from earlier work; remark: listed apart in the source
[4] = Isothermal titration calorimetry (ITC) of CB[6] host with dicationic guest molecules; format: binding; conditions: in water at 30° C.
Experimental: Isothermal titration calorimetry (ITC) was previously employed to study complexation parameters of Compound 1 [63]. Measurement of the host-guest binding thermodynamic profile using ITC provides in a single experiment not only the binding constants (Kb) and binding stoichiometry (n), but also the differences of enthalpy (ΔH) and entropy (ΔS) of binding.
The experiment was carried out by loading the ITC sample cell with saturated aqueous solution of Compound 1 (1.4 ml) and titrating it with a neutral aqueous solution of the dicationic dihydrochloride salts of various exemplary guest molecules at concentrations that ranged from 3.3 mM to 5.0 mM. The heat generated during each injection was recorded (FIG. 1) and the thermodynamic parameters were acquired by non-linear least squares fit of the calorimetric titration data to a one-site binding model (Table 2).
A saturated solution of Compound 1 (0.4 mM) in water at pH=7 was prepared by stirring an excess of finely powdered Compound 1 overnight at 30° C. and filtering through a 100-μm micro-filter. Solutions of the guest molecules at concentrations of 3.3-6 mM, were prepared and filtered through a 100-μm micro-filter as well. Titration calorimetry measurements were performed with a VP-ITC calorimeter (Microcal, Northampton, Mass.) as previously described. Repeat determinations indicated errors of 3-10% in n, ΔH, degree, and K values over the most favorable concentration range. A solution of Compound 1 was titrated by 29 injections of 6 μL of guest molecule solutions at 30° C. each, and the titration data were analyzed using Origin2000 software.

Row | Compound | ΔH of binding [4] | ΔS of binding [4] | further results
1 | O=C1N2CN3C(=O)N4CN5C(=O)N6CN7C(=O)N8CN9C(=O)N%10CN1C1C2N2CN%11C(=O)N(CN%12C(=O)N(CN%13C(=O)N(CN%14C(=O)N(CN1C2=O)C%10C9%14)C8C7%13)C6C5%12)C4C3%11 (stereo not drawn) [CB[5]] |  |  | solubility in aqueous acid ([1]; 3M HCl): about 60 mM
2 | O=C1N2CN3C(=O)N4CN5C(=O)N6CN7C(=O)N8CN9C(=O)N%10CN%11C(=O)N%12CN%13C(=O)N%14CN1C1C2N2CN%15C(=O)N(CN%16C(=O)N(CN%17C(=O)N(CN%18C(=O)N(CN%19C(=O)N(CN%20C(=O)N(CN1C2=O)C%14C%13%20)C%12C%11%19)C%10C9%18)C8C7%17)C6C5%16)C4C3%15 (stereo not drawn) [CB[7]] |  |  | solubility in aqueous acid ([1]; 3M HCl): about 700 mM
3 | O=C1N2CN3C(=O)N4CN5C(=O)N6CN7C(=O)N8CN9C(=O)N%10CN%11C(=O)N%12CN1C1C2N2CN%13C(=O)N(CN%14C(=O)N(CN%15C(=O)N(CN%16C(=O)N(CN%17C(=O)N(CN1C2=O)C%12C%11%17)C%10C9%16)C8C7%15)C6C5%14)C4C3%13 (stereo not drawn) [Compound 1, Cucurbit[6]uril] |  |  | concentration of saturated solution in water [2]: 400 µM; solubility in aqueous acid ([1]; HCO2H/H2O (1:1)): 61 mM (≈ 60.8 mg/mL); pKa value of the conjugate acid [3]: 3.02
4 | NCCCCCCN [Compound 3′, 1,6-diaminohexane] | -13.760 ± 0.090 kcal/mol | -20.4 cal/(mol·K) | ΔS of binding (entropy term, text) ([4]; text values in J): −85.77 J/mol.° K; ΔH binding enthalpy ([4]; text values in KJ): -13.76 kcal/mol
5 | Cl.Cl.NCC#CC#CCN [Compound 4′, Hexa-2,4-diyne-1,6-diammonium dihydrochloride] | -0.696 ± 0.005 kcal/mol | 23.51 | 
6 | Cl.Cl.NCC#CC#CCN1CCCC1 [Compound 5′, N-6-pyrrolidinium-hexa-2,4-diynyl ammonium dichloride] | -4.452 ± 0.057 kcal/mol | 9.29 cal/(mol·K) | 
7 | C(C#CCN1CCCC1)#CCN1CCCC1.Cl.Cl [Compound 6′, 1,6-Dipyrrolidinium-2,4-hexadiyne dichloride] | -3.718 ± 0.044 kcal/mol | 12.8 cal/(mol·K) | 
